Source: US20170014422A1 (SYNTHON B.V., priority 2014, published 2017)
Counter-ions that a name gives are not always drawn.

Test: Laboratory observation of polymorphic transformation of polymorph IV in pharmaceutical compositions
Format: physicochemical
Details: especially in pharmaceutical compositions; more pronounced in humid environments

Structure (SMILES): COc1cc2c(cc1OC)CC(=O)N(CCCN(C)C[C@H]1Cc3cc(OC)c(OC)cc31)CC2 [ivabradine hydrochloride polymorph IV, 3-(3-{[((7S)-3,4-dimethoxybicyclo[4.2.0]octa-1,3,5-trien-7-yl)methyl]methylamino}propyl)-7,8-dimethoxy-1,3,4,5-tetrahydro-2H-3-benzazepin-2-one]
- Polymorphic stability over time: transforms over time into the more stable polymorph β
